How the values were obtained:
[1] = tested on: human embryonic stem cells (hESCs); experiment: Medium component requirement assay, hESCs on laminin/collagen-coated plates for seven days; type: cell-based
Experimental: (a) Media containing bFGF, insulin, and ascorbic acid sustain the healthy undifferentiated growth of hESCs on laminin/collagen-coated plates. Insulin (20 μg/ml), transferrin (8 μg/ml), albumin (for example, the commercial product known as AlbuMAXI) (10 mg/ml), and ascorbic acid (50 μg/ml) were added to a base medium that consisted of 100% DMEM/F-12 with 20 ng/ml bFGF, 2 mM L-alanyl-L-glutamine, 1×MEM essential amino acids solution, 1×MEM non-essential amino acids solution, and 100 μM β-mercaptoethanol. The degree of differentiation was judged by morphology of the colonies and Oct-4 expression. […] (red). […] However, if ascorbic acid was omitted from the media [D, H, L] […] White arrows in all panels delineate the edge of an hESC colony. The area delineated by the white square in [A], [E], and [I] indicates the approximate area that is visualized at higher magnification in [B, C], [F, G], and [J, K], respectively. [C], [G], and [K] is the image in [B], [F], and [J], respectively, merged with DAPI staining of their nuclei (blue).
(b) When either bFGF or insulin was omitted from the media, hESC colonies appeared to differentiate completely under the feeder- and serum-free conditions. […] The distinct growth effects of insulin and bFGF were further accentuated in media lacking ascorbic acid [C, F] (“NO Ascorbic Acid”). In the absence of ascorbic acid and in media that contained only insulin as the growth factor [C] (phase) (“NO Ascorbic Acid”), slower growth of the differentiated hESCs was observed (compare [A, B] to [C]). In ascorbic-acid-lacking media that contained bFGF as the only growth factor [F] […] White arrows in all panels delineate the edge of hESC colonies.
Having determined that substantial numbers of undifferentiated hESCs could be maintained over long periods in feeder-free environments using the bFGF-supplemented media described above, the necessity of other components in the medium to maintain hESCs in an undifferentiated state was next examined. “Knockout Serum Replacement” contains insulin, transferrin, ascorbic acid, amino acids, and AlbuMAX (a chromatographically-purified lipid-rich bovine serum albumin [BSA] with low IgG content, but nevertheless a xeno-derived product). Accordingly, whether insulin, transferrin, BSA, and ascorbic acid were essential components was assessed, in combination with bFGF, for maintaining hESCs in an undifferentiated state. The serum replacement components insulin (20 μg/ml), transferrin (8 μg/ml), albumin (AlbuMAX) (10 mg/ml), and ascorbic acid (50 μg/ml) were added to a base medium that consisted of DMEM/F-12 or KO-DMEM with bFGF (20 ng/ml), L-alanyl-L-glutamine or L-glutamine (2 mM), MEM essential amino acids solution (1×), MEM nonessential amino acids solution (1×), and β-mercaptoethanol (100 μM). To assay for the differentiation-forestalling activity of each of these components, undifferentiated hESCs were seeded on laminin/collagen-coated plates and cultivated for seven days in media containing one or more of the individual components. The degree of differentiation of the colonies was judged by defining morphology and Oct-4 expression.
When either bFGF or insulin was omitted from the media, more than 90% of the colonies appeared to differentiate completely within the first passage, as indicated by their differentiated morphology (FIG. 2b, A,B,D,E), their complete loss of Oct-4 expression, and their expression of the cell surface marker SSEA-1 (FIG. 2c, B,C). […] The different effects of insulin and bFGF were accentuated further in media lacking ascorbic acid. In the absence of ascorbic acid and in media containing only insulin, the growth of differentiated hESCs was simply slower (FIG. 2b, C). […] Although albumin and transferrin are not crucial components for sustaining the undifferentiated growth of hESCs, they might abet survival or maintenance of a normal colony shape.

[2] = tested on: human embryonic stem cells (hESCs); experiment: Growth of hESCs on purified matrix protein-coated plates; type: cell-based; conditions: hESC media containing 20 ng/ml bFGF
From the text: (e) Characterization of hESCs maintained on matrix protein-coated plates in the defined hESC media - Determining the Minimal Essential Matrix. hESCs maintained on a laminin-coated plate have a classic undifferentiated morphology [A] (phase image) and express Oct-4 [B, C] (red). [C] is the image in [B] merged with DAPI staining of their nuclei (blue). White arrows delineate the edge of an hESC colony. The area delineated by the white square in [A] indicates the approximate area that is visualized at higher magnification in [B, C]. […] Red arrows in [D-F] indicate that the differentiated colony consisted of dense centers containing cyst-like structures and necrotic cells. Laminin, therefore, appeared to be the minimal sufficient matrix protein.
Having established that bFGF, insulin, and ascorbic acid were important minimal components of a feeder-free culture system, the growth of hESCs on purified matrix proteins, including human laminin-, fibronectin-, or collagen IV-coated plates in hESC media containing 20 ng/ml bFGF, was further examined.

[3] = tested on: human embryonic stem cells (hESCs); experiment: Other growth factors in place of bFGF for undifferentiated growth of hESCs; type: cell-based; conditions: feeder- and serum-free conditions
Experimental: All the growth factors were dissolved in a PBS buffer that contained 0.5% BSA, 1 mM DTT (Dithiothreitol) and 10% glyceral as a 10 μg/ml (500×) stock solution and stored in aliquots at −80° C. These factors were added individually to the hESC cultures at a concentration of 20 ng/ml, in the absence of bFGF or in the presence of a low concentration of bFGF (4 ng/ml). Seven days after seeding undifferentiated hESCs on laminin/collagen-coated plates, the cultures were examined.

[4] = tested on: acetylated histone H3 and H4, Myc, Tip60 HAT, p300 HAT; experiment: Chromatin state immunofluorescence (acetylated H3/H4, Myc, Tip60, p300) in hESCs; type: cell-based, human; conditions: named factor omitted from the media
From the text: (c) Presence of both bFGF and insulin is essential for maintenance of an acetylated transcriptionally active chromatin state in undifferentiated hESCs. When either bFGF or insulin is omitted from the media, the differentiated hESC colonies express the differentiation-associated cell surface marker SSEA-1 [B, C] […] (green), Myc [E, F] (red), and histone acetyltransferase (HAT) Tip60 [I, K] (green) and p300 [J, K] […] All cells are indicated by DAPI staining of their nuclei (blue).
To discover the minimal essential conditions needed to support the long-term growth of undifferentiated hESCs, morphological analysis was used to assess the developmental stage of hESCs at different times. For these analyses hESCs were grown in a 6- or 12-well plate to maturation (day 6 or 7 after seeding) before being fixed and visualized under a phase contrast microscope. Cellular immunofluorescence was also employed to assess the state of differentiation of hESCs. […] The state of differentiation of hESC was further assessed by generating (via lentiviral-mediated transduction) hESCs carrying a reporter gene (enhanced green fluorescence protein (EGFP)) under control of the Oct-4 promoter. Using these transfected hESCs (carrying Oct-4 driven EGFP), the undifferentiated state of hESCs can be visualized by green fluorescence (indicating Oct-4 expression). […]

O=C1O[C@H]([C@@H](O)CO)C(O)=C1O [ascorbic acid, reference compound]
cyst-like structures and necrotic cells within dense cores of differentiated hESC colonies ([1]; absence of ascorbic acid, media containing only bFGF): became more severe | growth of differentiated hESCs ([1]; absence of ascorbic acid, media containing only insulin): simply slower | appearance of hESC colonies ([1]; ascorbic acid omitted from the media): very dense at their core and necrotic

laminin
hESC colonies remaining undifferentiated (morphology, Oct-4) [2]: more than 80%

IGF-I: insulin-like growth factor-I
ability to replace bFGF in supporting undifferentiated growth of hESCs [3]: can not replace bFGF

VEGF
ability to replace bFGF in supporting undifferentiated growth of hESCs [3]: can not replace bFGF

albumin: chromatographically-purified lipid-rich bovine serum albumin with low IgG content
shape of hESC colonies ([1]; absence of albumin): more flat and spread out

transferrin: serum replacement component added at 8 μg/ml
number of hESC colonies ([1]; absence of transferrin): fewer total hESC colonies

PDGF: platelet-derived growth factor-AB
ability to replace bFGF in supporting undifferentiated growth of hESCs [3]: can not replace bFGF

IGF-II: insulin-like growth factor-II
ability to replace bFGF in supporting undifferentiated growth of hESCs [3]: can not replace bFGF

aFGF: acidic fibroblast growth factor
ability to replace bFGF in supporting undifferentiated growth of hESCs [3]: can not replace bFGF

EGF: epidermal growth factor (NSDSECPLSHDGYCLHDGVCMYIEALDKYACNCVVGYIGERCQYRDLKWWELR; Epidermal growth factor; UniProt P01133 971-1023, looked up)
ability to replace bFGF in supporting undifferentiated growth of hESCs [3]: can not replace bFGF

insulin: human recombinant insulin from Sigma, medium component
immunoreactivity to acetylated H3 and H4, Myc, Tip60 HAT, nuclear focal localization of p300 HAT [4]: undetectable or weak immunoreactivity | cell morphology in differentiated colonies ([1]; media that contained only the named growth factor): Large round cells
